The values below are quoted from earlier work in US8273371B2, “Crystalline mesoporous oxide based materials useful for the fixation and controlled release of drugs” (priority 2003, dated 2012).

The structures appear in SMILES notation. Values joined by “and” are separate entries in the source; they are usually repeats but may differ in a detail not shown here. Equal values may be shown once.

Assay in data set [1]: not given
The source holds these as a separate data set.

The conditions of data set [2]: ibuprofen loaded on mesoporous oxide material.
The conditions of data set [3]: from 50° C. to 130° C.
For data set [4] the following is noted: capsules with granulate of drug, surfactants, cyclodextrin, Avicel PH 101 and Primojel.

`CC/C(=C(/CC)c1ccc(O)cc1)c1ccc(O)cc1` [diethylstilbestrol]: the “solubility in water” value is listed as “virtually insoluble in water”.
For `CS(=O)(=O)c1ccc([C@@H](O)[C@@H](CF)NC(=O)C(Cl)Cl)cc1` [florfenicol, D-(threo)-1-p-methylsulfonyl phenyl-2-dichloroacetamido-3-fluoro-1-propanol], the oral bioavailability entry in data set [1] is recorded as “good oral bioavailability”.
Consider `CC(C)Cc1ccc(C(C)C(=O)O)cc1` (centres unmarked) [ibuprofen], for which the “drug release after 20 hours” value in data set [2] (after 20 hours) is recorded as 60%. In addition, the “drug release after 24 hours” value in data set [2] (after 24 hours) was 55% and 68%. In addition, in data set [2] (third day), the “maximum release at the third day” value is listed as 80%.
On to `CCC(C)n1ncn(-c2ccc(N3CCN(c4ccc(OCC5COC(Cn6cncn6)(c6ccc(Cl)cc6Cl)O5)cc4)CC3)cc2)c1=O` (centres unmarked) [itraconazole], for which, in data set [3], the “solubility in supercritical carbon dioxide” value is “relatively poor”.
As to `CC(C)(C)c1ccc(C(O)CCCN2CCC(C(O)(c3ccccc3)c3ccccc3)CC2)cc1` (centres unmarked) [terfenadine], the “drug release within 45 minutes” value in data set [4] is reported as 90%. For the same compound, the water-solubility entry (in water) was “less than 0.01 mg/ml”.
